Assay results taken from paper PMC4641600, “Novel Activities of Select NSAID R-Enantiomers against Rac1 and Cdc42 GTPases” (PLoS ONE, 2015).
Counter-ions that a name gives are not always drawn.

System: Rab2 wt, Rab7 wt, Cdc42 wt, Cdc42Q61L, H-Ras wt, H-RasG12V, Rac1 wt and Rac1Q61L
Test: Primary multiplex screen, BODIPY-FL-GTP binding on bead-bound GTPases (flow cytometry)
Conditions: single dose 10 µM; change in BODIPY-GTP binding on any one GTPase

| Structure (SMILES) | Primary Screen Hit |
| --- | --- |
| CC(=O)Nc1ccc(O)cc1 [Acetaminophen] | Inactive |
| CC(=O)Oc1ccccc1C(=O)Oc1ccccc1C(=O)O [Acetylsalicylsalicylic acid] | Inactive |
| O=C(O)Cc1ccccc1Nc1c(Cl)cccc1Cl [Diclofenac sodium] | Inactive |
| O=C(O)c1cc(-c2ccc(F)cc2F)ccc1O [Diflunisal] | Inactive |
| CN1C(C(=O)Nc2ccccn2)=C(O)c2ccccc2S1(=O)=O [Piroxicam] | Inactive |
| CC1=C(CC(=O)O)c2cc(F)ccc2/C1=C\c1ccc([S+](C)[O-])cc1 (stereo not shown) [Sulindac] | Inactive |
| CC(C(=O)O)c1ccc(C(=O)c2cccs2)cc1 (stereo not shown) [Suprofen] | Inactive |
| CC(C(=O)O)c1ccc(C(=O)c2ccccc2)s1 (stereo not shown) [Tiaprofenic acid] | Inactive |
| Cc1c(Cl)cccc1Nc1ccccc1C(=O)O [Tolfenamic acid] | Inactive |
| Cc1ccc(C(=O)c2ccc(CC(=O)O)n2C)cc1 [Tolmetin sodium salt dihydrate] | Inactive |

System: Ras-related GTPases
Test: Confirmatory dose response assays on eight Ras-related GTPases
Assay type: binding
Conditions: 10 nM to 100 µM
Method: For multiplex analyses of small GTPases, 4 μm diameter glutathione-beads (GSH-beads) distinguished by seven different intensities of red fluorescence were used according to our previously described protocols. The GST-GTPases included the following eight Ras-related small GTPases: Rab2 wt, Rab7 wt, Cdc42 wt, Cdc42Q61L activating mutant, H-Ras wt, H-RasG12V, Rac1 wt and Rac1Q61L activating mutant. Briefly, Prestwick Chemical Library® compounds were tested at 10 μM compound and 1% DMSO final concentrations. After a 10 min pre-incubation with the compound BODIPY- FL-GTP (100 nM final) was added to each well and bead associated fluorescence was measured. Sample analysis was conducted with a HyperCyt® high throughput flow cytometry platform. Flow cytometric light scatter at 488 nm and fluorescence emission at 530 +/− 20 nm (FL1) and 665 +/− 10 nm (FL8) were collected on a Cyan ADP flow cytometer (Beckman Coulter, Fullerton, CA). IDLQuery software was used to determine the compound activity in each well. Gating based on forward scatter (FS) and side scatter (SS) parameters was used to identify singlet bead populations. Gating based on FL8 emission distinguishes the beads coated with different proteins, and the median FL1 fluorescence per bead population were calculated. A compound was considered a “potential active” if the change in BODIPY-FL-GTP binding differed greater than 20% from that measured in DMSO treated controls.
Test compounds identified for follow-up after the primary screen were tested at dilutions ranging from 10 nM to 100 μM final concentration against individual GTPases in multiplex and single-plex assays. Compounds tested in dose response assays were serially diluted 1:3 a total of eight times from a starting concentration of 10 mM giving a 9-point dilution series in DMSO.
bConfirmatory screens entailed dose response assays conducted in a multiplex format with eight GTPases tested as for primary screen. BODIPY-GTP-binding activity was
measured in the presence of 10 nM to 100 µM of each of 11 test compounds (4 primary screen hits and 7 additional NSAIDs considered to have chemical similarity to GTPase
active compounds). GST-GFP coated beads served as a control to detect non-specific dissociation or denaturation caused by compound addition–none of the tested NSAIDs had
any effect on bead-GST-protein binding. EC50 values were determined using Prism to determine dose response fits as shown in Figure 1 of main text; fits have R2 > 0.9. Active
compounds based on same definition used as in primary screena. […]
‡A well-characterized selective Cdc42 inhibitor served as a positive control.

| Structure (SMILES) | activity against the GTPases in confirmatory dose response assays (words) |
| --- | --- |
| Cc1ccc(-c2cc(C(F)(F)F)nn2-c2ccc(S(N)(=O)=O)cc2)cc1 [Celecoxib] | inactive |
| Cc1onc(-c2ccccc2)c1-c1ccc(S(N)(=O)=O)cc1 [Valdecoxib] | inactive |

System: Rac1 membrane localization
Test: Rac1 immunolocalization, OvCa433 cells
Assay type: cell-based, human
Conditions: 300 μM

| Structure (SMILES) | Rac1 membrane localization |
| --- | --- |
| CC(=O)Oc1ccccc1C(=O)O [Acetylsalicylic acid] | did not alter |
| CC(C(=O)O)c1cccc(C(=O)c2ccccc2)c1 (stereo not shown) [Ketoprofen] | did not alter |
| CC(C)Cc1ccc(C(C)C(=O)O)cc1 (stereo not shown) [ibuprofen] | did not alter |

Same assay, conditions: immunofluorescence quantified using ImageJ; assays performed with 0.1% DMSO

| Structure (SMILES) | Rac PM Localiz. |
| --- | --- |
| CC(C(=O)O)c1cccc(C(=O)c2ccccc2)c1 (stereo not shown) [Ketoprofen] | 45% |
